This note sets out measurements from patent US9801850B2, “Antibacterial agent” (OSAKA UNIVERSITY, priority 2009, dated 2017).

The subject of one assay is fungi. Nature of the assay: Antifungal effect over the fungi of Table 8. The following applies: respective types of fungi of Table 8. Type of assay: cell-based. As for the experimental part:
Regarding the respective type strains shown in Tables 7 and 8 below, the MIC measurement was performed using the antibacterial agent solutions of Example 2 in the same manner as described in Section (2) of Example 1, except for the following. The antibacterial agent solutions were prepared by dissolving the EGCG derivatives of Example 2 in 100% DMSO and then diluting the resultant mixtures with sterile distilled water. The respective strains were derived from ATCC or NCTC. As Moraxella catarrhalis and Aspergillus fumigatus, clinical isolates thereof without an acquired resistance mechanism were used. For nutrient-rich bacteria, namely, Streptococcus pneumoniae ATCC49619, Streptococcus pyogenes ATCC19615, Streptococcus agalactiae ATCC13813, Moraxella catarrhalis, and Haemophilis influenzae ATCC49766, Strepto Haemo supplement (Eiken Chemical Co., Ltd.) was added to media for culturing them. The MIC measurement with respect to fungi was carried out by a broth microdilution method using a RPMI1640/MOPS (pH 7.0) medium in accordance with CLSI guidelines. About 2×10^3 cells/ml of fungi were inoculated to the medium. After the culture at 35° C. for 24 to 48 hours, the MIC was determined. Also, regarding the antibacterial agent solution of Comparative Example 2, the MIC was measured in the same manner.

In assay [1] the test system is MRSA ATCC43300. The assay is described as follows: Membrane damaging properties, SYTOX Green fluorescence (Example 4). The conditions noted are these: for fluorescence intensity ratio of SYTOX Green (control PBS = 1): 37° C., 15 minutes, EGCG derivative 4-32, EGCG 8-128, NISIN 1-8 μg/ml, FIG. 3. It counts as cell-based, Staphylococcus aureus. As for the experimental part:
(§1) As an antibacterial agent, the EGCG-C16 prepared in Example 1 was used in Example 4; EGCG was used in Comparative Example 4; and membrane-damaging peptide NISIN (MP Biomedicals) was used in a reference example. Antibacterial agent solutions of EGCG-C16 and EGCG were prepared by dissolving them in DMSO so as to achieve top concentrations, respectively. An antibacterial agent solution of the other antibacterial agent was prepared by dissolving it in PBS and diluted with PBS as appropriate. The influence of DMSO used for dissolving the antibacterial agents also was considered.
MSSA ATCC25923 and MRSA ATCC43300 were subjected to shaking culture in MH-broths (Difco) until they reached a late stage in the exponential growth phase. The thus-obtained culture solutions were each centrifuged at 7000 rpm for 10 minutes, and bacterial cells that had settled were suspended in PBS. The suspension of the bacterial cells was added to wells of a 384 black plate, and each of the antibacterial agent solutions was further added thereto and mixed. The resultant mixture was incubated at 37° C. for 15 minutes. Subsequently, a dead cell-staining dye (trade name “SYTOX Green”, LONZA) was mixed in each well so that the concentration thereof became 10 μmol/l, and the resultant mixture was incubated at 37° C. for 10 minutes. The final concentrations of the respective antibacterial agents were as follows: 4, 8, 16, and 32 μg/ml for the EGCG derivative; 8, 16, 32, 64, and 128 μg/ml for EGCG; and 1, 2, 4, and 8 μg/ml for NISIN. […] On the other hand, as a control, the fluorescence intensity was measured in the same manner, except that PBS or 10% DMSO was added instead of the antibacterial agent solutions. Then, regarding each of the MSSA and MRSA, the ratio of the fluorescence intensity when each of the agents was added was calculated assuming that the fluorescence intensity obtained in the control (PBS) was 1.

The next assay relates to MSSA ATCC25923. The description is as above. It counts as cell-based, Staphylococcus aureus. The conditions noted are these: for fluorescence intensity ratio of SYTOX Green (control PBS = 1): 37° C., 15 minutes, EGCG derivative 4-32, EGCG 8-128, NISIN 1-8 μg/ml, FIG. 3. As for the experimental part:
as §1
MSSA ATCC25923 and MRSA ATCC43300 were subjected to shaking culture in MH-broths (Difco) until they reached a late stage in the exponential growth phase. The thus-obtained culture solutions were each centrifuged at 7000 rpm for 10 minutes, and bacterial cells that had settled were suspended in PBS. The suspension of the bacterial cells was added to wells of a 384 black plate, and each of the antibacterial agent solutions was further added thereto and mixed. The resultant mixture was incubated at 37° C. for 15 minutes. Subsequently, a dead cell-staining dye (trade name “SYTOX Green”, LONZA) was mixed in each well so that the concentration thereof became 10 μmol/l, and the resultant mixture was incubated at 37° C. for 10 minutes. […] On the other hand, as a control, the fluorescence intensity was measured in the same manner, except that PBS or 10% DMSO was added instead of the antibacterial agent solutions. Then, regarding each of the MSSA and MRSA, the ratio of the fluorescence intensity when each of the agents was added was calculated assuming that the fluorescence intensity obtained in the control (PBS) was 1.

The test system of assay [2] is MRSA clinical isolate No. 8. The assay is described as follows: Checker-board method, combination with β-lactam agent (Example 6). Type of assay: cell-based, Staphylococcus aureus. Details: key to minimum EGCG-C16 concentration inhibiting growth alone: *MIC: The minimum EGCG-C16 concentration when the growth of the bacteria was inhibited using EGCG-C16 alone under a β-lactam agent free condition. How it is done:
(§2) EGCG-C16 was dissolved in 100% DMSO, and each of the above-described β-lactam agents was dissolved in sterile distilled water. Thereafter, they were diluted with sterile distilled water so as to achieve predetermined concentrations, and the respective agents at the respective concentrations were combined one another. The change in MIC of each β-lactam agent by the addition of EGCG-C16 was measured by the checker-board method. […] The minimum inhibitory concentration (MIC) of each of the above-described β-lactam agents when used in combination with EGCG-C16 was measured in the same manner as described in Section (2) of Example 2, except that the MRSA ATCC43300 and the MRSA clinical isolate No. 8 used in Example 2 were used as the bacteria.
(§3) As Comparative Example 6, the minimum inhibitory concentration (MIC) was measured in the same manner as in Example 6, except that EGCG was used instead of EGCG-C16.

For assay [3], the system named is MRSA ATCC43300. Described as above. It counts as cell-based, Staphylococcus aureus. Details: key to minimum EGCG-C16 concentration inhibiting growth alone: *MIC: The minimum EGCG-C16 concentration when the growth of the bacteria was inhibited using EGCG-C16 alone under a β-lactam agent free condition. How it is done:
as §2, §3

Setting [4] is: concentration of EGCG-C16 or EGCG 0 μg/ml.
The mark [5] stands for this setting: concentration of EGCG-C16 or EGCG 8 μg/ml.
Setting [6] is: MRSA ATCC43300, concentration of EGCG-C16 or EGCG 0 μg/ml.
Where [7] appears, read: MRSA ATCC43300, concentration of EGCG-C16 or EGCG 8 μg/ml.
[8] abbreviates: MRSA ATCC43300, concentration of EGCG-C16 or EGCG 16 μg/ml.
Setting [9] is: MRSA ATCC43300, concentration of EGCG-C16 or EGCG 32 μg/ml.
The mark [10] stands for this setting: MRSA ATCC43300, concentration of EGCG-C16 or EGCG 64 μg/ml.
Where [11] appears, read: MRSA ATCC43300, concentration of EGCG-C16 or EGCG 128 μg/ml.
Where [12] appears, read: MRSA ATCC43300, concentration of EGCG-C16 or EGCG 2 μg/ml.
[13] abbreviates: MRSA ATCC43300, concentration of EGCG-C16 or EGCG 4 μg/ml.

On to EGCG-palmitoleate [EGCG-C16E], for which, in the assay on fungi, the antifungal effect result was “highest antifungal effect”.
For `O=C(O[C@@H]1Cc2c(O)cc(O)cc2O[C@@H]1c1cc(O)c(O)c(O)c1)c1cc(O)c(O)c(O)c1` [EGCG, Epigallocatechin gallate, reference compound], the “fluorescence intensity ratio of SYTOX Green (control PBS = 1)” value in the assay on MRSA ATCC43300 [1] and in the assay on MSSA ATCC25923 was “smaller than 1” throughout. Also, the “MIC of ABPC when used in combination with EGCG-C16 or EGCG” value (“MIC of ABPC when used in combination” below) in assay [2] (setting [4]) amounted to 64 mg/L; in assay [2] (setting [5]) it was 4 mg/L; in assay [2] (concentration of EGCG-C16 or EGCG 16 μg/ml) it was 8 mg/L; in assay [2] (concentration of EGCG-C16 or EGCG 32 μg/ml) it was 8 mg/L; in assay [2] (concentration of EGCG-C16 or EGCG 64 μg/ml) it was 4 mg/L; in assay [2] (concentration of EGCG-C16 or EGCG 128 μg/ml), 1 mg/L. The “MIC of ABPC when used in combination” value in the assay on MRSA ATCC43300 [3] (setting [6]) was found to be 32 mg/L; in the assay with MRSA ATCC43300 [3] (setting [7]), 8 mg/L; in the assay on MRSA ATCC43300 [3] (setting [8]), 4 mg/L; with MRSA ATCC43300 [3] (setting [9]), 4 mg/L; in the assay on MRSA ATCC43300 [3] (setting [10]), 2 mg/L; in the assay with MRSA ATCC43300 [3] (setting [11]), 1 mg/L. The “antagonistic action in combination with IPM” value with MRSA ATCC43300 [3] (ATCC43300, IPM susceptible, EGCG at 16 to 64 μg/ml, EGCG derivative in the examined concentration range) is reported as “weak antagonistic action”. For the same compound, the “MIC of IPM when used in combination with EGCG-C16 or EGCG” value was 0.016 mg/L with MRSA ATCC43300 [3] (setting [6]); 0.016 mg/L in the assay on MRSA ATCC43300 [3] (setting [7]); 0.031 mg/L in the assay on MRSA ATCC43300 [3] (setting [8]); 0.031 mg/L in the assay on MRSA ATCC43300 [3] (setting [9]); 0.031 mg/L in the assay with MRSA ATCC43300 [3] (setting [10]); 0.016 mg/L with MRSA ATCC43300 [3] (setting [11]).
In the case of EGCG-α-linoleate [EGCG-C18TE], the antifungal effect result in the assay on fungi is listed as “highest antifungal effect”.
As for EGCG-palmitate [EGCG-C16], the “fluorescence intensity ratio of SYTOX Green (control PBS = 1)” value in the assay on MRSA ATCC43300 [1] and with MSSA ATCC25923 was “very high fluorescence intensity ratio” in each case. Moreover, the “cell membrane-damaging action at high concentration (SYTOX Green)” value in the assay on MRSA ATCC43300 [1] (EGCG-C16 at 64 μg/ml) and in the assay on MSSA ATCC25923 (EGCG-C16 at 64 μg/ml) was “tendency for this action of EGCG-C16 to become weak” each time. Besides, the “MIC of ABPC when used in combination” value in assay [2] (setting [4]) was found to be 64 mg/L; in assay [2] (concentration of EGCG-C16 or EGCG 2 μg/ml), 32 mg/L; in assay [2] (concentration of EGCG-C16 or EGCG 4 μg/ml) it was 16 mg/L; in assay [2] (setting [5]) it was 2 mg/L; in the assay on MRSA ATCC43300 [3] (setting [6]), 32 mg/L; with MRSA ATCC43300 [3] (setting [12]), 16 mg/L. For the same compound, the “MIC of ABPC when used in combination” value amounted to 8 mg/L in the assay on MRSA ATCC43300 [3] (setting [13]) and 1 mg/L in the assay with MRSA ATCC43300 [3] (setting [7]). For the same compound, the “minimum EGCG-C16 concentration inhibiting growth alone” value is given as “*MIC” in assay [2] (β-lactam agent free, mark stands in the column 16 μg/ml) and “*MIC” with MRSA ATCC43300 [3] (MRSA ATCC43300, β-lactam agent free, mark stands in the column 16 μg/ml). The “MIC of IPM when used in combination with EGCG-C16 or EGCG” value was determined as 0.016 mg/L with MRSA ATCC43300 [3] (setting [6]), 0.016 mg/L in the assay with MRSA ATCC43300 [3] (setting [12]), 0.016 mg/L in the assay with MRSA ATCC43300 [3] (setting [13]) and 0.004 mg/L in the assay on MRSA ATCC43300 [3] (setting [7]).
